Experimental data as given in patent US6495523B1, “Tricyclic monosaccharide derivatives useful in treating acute ischemia-induced neurodegeneration” (Ortho McNeil-Pharmaceutical, Inc., priority 1999, dated 2002).

Experiments:
[1] = tested on: Male Long-Evans rats; experiment: Neurologic assessment in rat cardiac arrest (global ischemia) model; format: in vivo; conditions: conditions of Table 1
Procedure: Male Long-Evans rats (250 g) were obtained from Charles River Laboratories, Portage, Mich. The neurologic function and seizure susceptibility of each animal was tested according to the methods described below. The rats were housed in the experimental laboratory for at least 24 h prior to study to avoid transit stress and to ensure a 24-h fasting period. Only rats with blood glucose levels of 100 mg/dL or less at the end of fasting were used in the experiments.
General anesthesia was induced with ketamine (100 mg/kg, ip) and maintained with small fractional supplements as needed. Tracheal intubation was performed using a custom-made fiberoptic rodent laryngoscope and a 14-gauge polyethylene catheter. Needle electrodes were inserted in the scalp and thorax to monitor the EEG and ECG, respectively, while blood pressure was measured via an indwelling femoral arterial cannula. Body and brain temperatures were monitored by thermistors placed in the rectum and temporalis muscle, respectively. […]
Neurologic assessment was identical to that described for the use with this model by Wauquier et al. (Neuropharmacology 1989; 28(8):837-846). […] In addition to the neurodeficit score, the angle of inclination at which the rat could no longer cling to the inclined plane was determined. Performance was quantified as percent of preinsult baseline.

[2] = tested on: human epilepsy; conditions: adjunctive therapy or monotherapy; clinical trials; cited from earlier work

SMILES	detrimental effect on exploratory behavior (effect in words) [1]	ischemia-induced neurological deficit (effect in words) [1]	efficacy in treating simple and complex partial seizures and secondarily generalized seizures [2]
CC1(C)O[C@H]2[C@@H]3OS(=O)(=O)O[C@@H]3CO[C@@]2(COS(N)(=O)=O)O1 [RWJ-37947]	significantly reduced	significantly reduced	–
CC1(C)O[C@@H]2[C@@H](CO[C@@]3(COS(N)(=O)=O)OC(C)(C)O[C@@H]23)O1 [topiramate, 2,3:4,5-bis-O-(1-methylethylidene)-β-D-fructopyranose sulfamate]	–	–	effective
